Patent US12319655B2, “RAF kinase inhibitors and methods of use thereof” (Deciphera Pharmaceuticals, LLC, priority 2021, dated 2025)

Columns and labels:
[1] = test system: H2405 cells; assay: H2405 Cell Proliferation Assay (1); type: cell-based; details: Homo sapiens, NCI-H2405
Procedure, shortened: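 Viability was read by resazurin reduction (ex 540 nm, em 600 nm; 5-6 h with 40 μL of 440 μM stock) after 67-72 h compound exposure at 37 °C.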

[2] = test system: Miapaca-2 cells; assay: MiaPaca-2 Cell Proliferation Assay (1); type: cell-based; details: Homo sapiens, MIA PaCa-2, single agent, read-out: MiaPaca2 (1) IC50
Procedure, shortened: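 Resazurin was added after compound exposure and incubated 5-6 h, then fluorescence read at 540 nm excitation and 600 nm emission to give IC50.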

[3] = test system: WM3928 cells; assay: WM3928 Cell Proliferation Assay (1); type: cell-based
Procedure, shortened: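 IC50 was derived from resazurin fluorescence (ex 540, em 600 nm) after a 6–7 h dye incubation. Before that, cells had 67–72 h of compound exposure at 37 °C, 5% CO2.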

[4] = biological target: A-Raf kinase (SEQ. ID No: 1) (Homo sapiens (Human), UniProt P10398, Y301D/Y302D); assay: Biochemical Assay for A-Raf (1); details: Table J, assay version (1); read-out: ARAF (1) IC50
Procedure, shortened: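 IC50 values were derived by four-parameter sigmoidal fitting of percent inhibition, calculated from reaction rates over the 4–5 h window. Absorbance at 340 nm was tracked for 6 h at 30 °C via coupled PK/LDH NADH depletion. Conditions: 1 mM ATP, 30.1 nM MEK substrate, 5.55 nM A-Raf (Y301D/Y302D), Tris pH 7.5, 1% DMSO.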

Sequence of A-Raf kinase (SEQ. ID No: 1) (P10398 other isoform, or with tags, fused parts or gaps Y301D (already in the parent)/Y302D (already in the parent)): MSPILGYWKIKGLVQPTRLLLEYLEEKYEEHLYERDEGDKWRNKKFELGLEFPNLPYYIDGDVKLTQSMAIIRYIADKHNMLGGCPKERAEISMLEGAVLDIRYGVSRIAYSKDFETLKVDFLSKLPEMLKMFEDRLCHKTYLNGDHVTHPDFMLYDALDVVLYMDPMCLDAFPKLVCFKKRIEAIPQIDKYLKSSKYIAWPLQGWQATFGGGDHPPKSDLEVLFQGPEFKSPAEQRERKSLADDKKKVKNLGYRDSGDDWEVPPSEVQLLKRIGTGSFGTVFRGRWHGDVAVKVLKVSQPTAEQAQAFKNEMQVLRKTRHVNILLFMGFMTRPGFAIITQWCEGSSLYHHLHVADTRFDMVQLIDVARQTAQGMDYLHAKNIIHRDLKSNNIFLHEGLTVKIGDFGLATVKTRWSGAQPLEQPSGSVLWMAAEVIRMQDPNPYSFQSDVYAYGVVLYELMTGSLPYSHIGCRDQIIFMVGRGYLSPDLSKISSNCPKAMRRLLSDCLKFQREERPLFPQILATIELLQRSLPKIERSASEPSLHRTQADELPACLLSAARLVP

Structure (SMILES) | IC50 [1] | IC50 [2] | IC50 [3] | IC50 [4]
Cc1ccc(NC(=O)c2ccnc(C3(C#N)CC3)c2)cc1-c1nccc(-c2ccnc(NC(=O)C3CC3)c2)n1 [Example 187] | 0.1 to 0.5 µM | 1 to 10 µM | ≤ 0.1 µM | 0.1 to 0.5 µM
Cc1ccc(NC(=O)c2ccnc(C(F)F)c2)cc1-c1ccnc(-c2ccnc(NC(=O)C3CC3)c2)n1 [Example 189] | 0.1 to 0.5 µM | 1 to 10 µM | ≤ 0.1 µM | 0.5 to 1 µM
CNC(=O)c1cc(-c2cccc(-c3cc(NC(=O)c4ccnc(C(C)(C)C#N)c4)cnc3C)c2)ccn1 [Example 192] | 0.1 to 0.5 µM | 1 to 10 µM | ≤ 0.1 µM | 1 to 10 µM
Cc1ncc(NC(=O)c2ccnc(C(C)(C)C#N)c2)cc1-c1ccnc(-c2ccnc(NC(=O)C3CC3)c2)n1 [Example 193] | ≤ 0.1 µM | 1 to 10 µM | ≤ 0.1 µM | 1 to 10 µM
Cc1ccc(NC(=O)c2cc(CN(C)C)cc(C(F)(F)F)c2)cc1-c1cccc(-c2cc(NC(=O)C3CC3)ncn2)c1 [Example 202] | 0.1 to 0.5 µM | 1 to 10 µM | ≤ 0.1 µM | 1 to 10 µM
CNC(=O)c1cc(-c2cccc(-c3cc(NC(=O)c4ccnc(C(C)(C)C#N)c4)cnc3C)c2)ncn1 [Example 204] | 0.1 to 0.5 µM | 1 to 10 µM | 0.1 to 0.5 µM | 1 to 10 µM
CNC(=O)c1cc(-c2cc(-c3cc(NC(=O)c4ccnc(C(C)(C)F)c4)ccc3C)ccn2)ccn1 [Example 214] | 0.1 to 0.5 µM | 1 to 10 µM | ≤ 0.1 µM | 1 to 10 µM
Cc1ncc(NC(=O)c2ccnc(C(C)(C)C#N)c2)cc1-c1cc(-c2cc(NC(=O)C3CC3)ncn2)cc(C2CC2)c1 [Example 218] | 0.1 to 0.5 µM | 1 to 10 µM | ≤ 0.1 µM | 1 to 10 µM
COCCNc1cc(-c2nccc(-c3cc(NC(=O)c4ccnc(C(C)(C)C#N)c4)ccc3C)n2)ccn1 [Example 221] | 1 to 10 µM | 1 to 10 µM | 0.5 to 1 µM | 1 to 10 µM
Cc1ncc(NC(=O)c2ccnc(C(C)(C)C#N)c2)cc1-c1cccc(-c2ccnc(NC(=O)C3CC3)c2)c1 [Example 222] | 0.1 to 0.5 µM | 1 to 10 µM | ≤ 0.1 µM | 0.5 to 1 µM
Cc1ccc(NC(=O)c2ccnc(C(C)(C)C#N)c2)cc1-c1cncc(-c2cc(NC(=O)C3CC3)ncn2)c1 [Example 224] | ≤ 0.1 µM | 0.1 to 0.5 µM | ≤ 0.1 µM | 0.5 to 1 µM
COC(=O)Nc1cc(-c2cccc(-c3cc(NC(=O)c4ccnc(C(C)(C)C#N)c4)cnc3C)c2)ncn1 [Example 225] | 0.5 to 1 µM | 1 to 10 µM | ≤ 0.1 µM | 1 to 10 µM
Cc1ccc(NC(=O)c2ccnc(C3CC3)c2)cc1-c1ccnc(-c2ccnc(NC(=O)C3CC3)c2)n1 [Example 229] | ≤ 0.1 µM | 1 to 10 µM | ≤ 0.1 µM | 0.1 to 0.5 µM
Cc1ccc(NC(=O)c2ccnc(C(C)(C)C#N)c2)cc1-c1cnnc(-c2ccnc(NC(=O)C3CC3)c2)c1 [Example 230] | ≤ 0.1 µM | 0.5 to 1 µM | ≤ 0.1 µM | 1 to 10 µM
CNC(=O)c1cc(-c2cc(-c3cc(NC(=O)c4cccc(C(C)(C)C#N)c4)ccc3C)cc(OCCO)n2)ccn1 [Example 231] | ≤ 0.1 µM | 1 to 10 µM | ≤ 0.1 µM | 1 to 10 µM
CNC(=O)c1cc(-c2cncc(-c3cc(NC(=O)c4ccnc(C(C)(C)C#N)c4)ccc3C)c2)ncn1 [Example 235] | 0.1 to 0.5 µM | 1 to 10 µM | ≤ 0.1 µM | 1 to 10 µM
Cc1ccc(NC(=O)c2ccnc(C(C)(C)C#N)c2)cc1-c1ccnc(-c2ccnc(NC(=O)C3(C#N)CC3)c2)n1 [Example 241] | ≤ 0.1 µM | 0.5 to 1 µM | ≤ 0.1 µM | 1 to 10 µM

Structure (SMILES) | IC50 [1] | IC50 [2] | IC50 [3] | IC50 [4]
Cc1ccc(NC(=O)c2ccnc(C(C)(C)C#N)c2)cc1-c1cc(-c2ccnc(NC(=O)C3CC3)c2)cnn1 [Example 245] | ≤ 0.1 µM | 1 to 10 µM | ≤ 0.1 µM | 0.5 to 1 µM
Cc1ncc(NC(=O)c2ccnc(C(C)(C)F)c2)cc1-c1cccc(-c2cc(NC(=O)C3CC3)ncn2)c1 [Example 249] | 0.1 to 0.5 µM | 1 to 10 µM | ≤ 0.1 µM | 0.5 to 1 µM
Cc1ccc(NC(=O)c2cnnc(C3CC3)c2)cc1-c1ccnc(-c2ccnc(NC(=O)C3CC3)c2)n1 [Example 250] | 0.1 to 0.5 µM | 1 to 10 µM | 0.1 to 0.5 µM | 1 to 10 µM
Cc1ncc(NC(=O)c2ccnc(C(C)(C)C#N)c2)cc1-c1ccnc(-c2ccnc(NC(=O)C3CC3)c2)c1 [Example 251] | 0.1 to 0.5 µM | 1 to 10 µM | ≤ 0.1 µM | 1 to 10 µM
Cc1ncc(NC(=O)c2ccnc(C3CC3)c2)cc1-c1ccnc(-c2ccnc(NC(=O)C3CC3)c2)c1 [Example 253] | 0.1 to 0.5 µM | 1 to 10 µM | ≤ 0.1 µM | 1 to 10 µM
Cc1ncc(NC(=O)c2cnnc(C3CC3)c2)cc1-c1ccnc(-c2ccnc(NC(=O)C3CC3)c2)c1 [Example 254] | 1 to 10 µM | 1 to 10 µM | 1 to 10 µM | 1 to 10 µM
Cc1ncc(NC(=O)c2ccnc(C3CC3)c2)cc1-c1cnc(C)c(-c2ccnc(NC(=O)C3CC3)c2)c1 [Example 256] | 0.1 to 0.5 µM | 1 to 10 µM | 0.5 to 1 µM | 1 to 10 µM
CNC(=O)c1cc(-c2cc(-c3cc(NC(=O)c4ccnc(C(C)(C)OC)c4)ccc3C)ccn2)ccn1 [Example 264] | 0.1 to 0.5 µM | 1 to 10 µM | ≤ 0.1 µM | 1 to 10 µM
CNC(=O)c1cc(-c2cc(-c3cc(NC(=O)c4ccnc(C5(C#N)CC5)c4)ccc3C)ccn2)ccn1 [Example 265] | ≤ 0.1 µM | 1 to 10 µM | ≤ 0.1 µM | 1 to 10 µM
Cc1ccc(NC(=O)c2ccnc(C(C)(C)C#N)c2)cc1-c1cccc(-c2cc(N)ncn2)c1 [Example 267] | 0.5 to 1 µM | 1 to 10 µM | 0.1 to 0.5 µM | 1 to 10 µM
Cc1ncc(NC(=O)c2ccnc(C3CC3)c2)cc1-c1cccc(-c2ccnc(NC(=O)C3CC3)c2)n1 [Example 270] | 0.1 to 0.5 µM | 1 to 10 µM | 0.1 to 0.5 µM | 1 to 10 µM
Cc1cc(F)c(NC(=O)c2ccnc(C(F)(F)F)c2)cc1-c1cncc(-c2ccnc(NC(=O)C3CC3)c2)n1 [Example 271] | 0.1 to 0.5 µM | 1 to 10 µM | ≤ 0.1 µM | 0.5 to 1 µM
Cc1cc(C(=O)Nc2cnc(C)c(-c3ccnc(-c4ccnc(NC(=O)C5CC5)c4)n3)c2)ccn1 [Example 273] | 1 to 10 µM | 1 to 10 µM | 1 to 10 µM | 1 to 10 µM
COC(C)(C)c1cc(C(=O)Nc2cnc(C)c(-c3cccc(-c4cc(NC(=O)C5CC5)ncn4)c3)c2)ccn1 [Example 274] | ≤ 0.1 µM | 1 to 10 µM | ≤ 0.1 µM | 1 to 10 µM
Cc1ncc(NC(=O)c2cnnc(C3CC3)c2)cc1-c1ccnc(-c2ccnc(NC(=O)C3CC3)c2)n1 [Example 278] | 1 to 10 µM | 1 to 10 µM | 1 to 10 µM | 1 to 10 µM
Cc1ncc(NC(=O)c2cnn(C(C)(C)C)c2)cc1-c1cccc(-c2cc(NC(=O)C3CC3)ncn2)c1 [Example 279] | 0.1 to 0.5 µM | 1 to 10 µM | ≤ 0.1 µM | 1 to 10 µM
